The target in the test is interaction between p53 and MDM2 proteins (recombinant GST-tagged MDM2) (Homo sapiens, UniProt Q00987). Kind of test: ELISA of inhibition of the interaction between p53 and MDM2 (GST-tagged MDM2 binding to immobilized p53-like peptide). The settings on record: recombinant GST-tagged MDM2 / biotinylated p53-like peptide.
Chain of interaction between p53 and MDM2 proteins (recombinant GST-tagged MDM2) (Q00987 whole entry): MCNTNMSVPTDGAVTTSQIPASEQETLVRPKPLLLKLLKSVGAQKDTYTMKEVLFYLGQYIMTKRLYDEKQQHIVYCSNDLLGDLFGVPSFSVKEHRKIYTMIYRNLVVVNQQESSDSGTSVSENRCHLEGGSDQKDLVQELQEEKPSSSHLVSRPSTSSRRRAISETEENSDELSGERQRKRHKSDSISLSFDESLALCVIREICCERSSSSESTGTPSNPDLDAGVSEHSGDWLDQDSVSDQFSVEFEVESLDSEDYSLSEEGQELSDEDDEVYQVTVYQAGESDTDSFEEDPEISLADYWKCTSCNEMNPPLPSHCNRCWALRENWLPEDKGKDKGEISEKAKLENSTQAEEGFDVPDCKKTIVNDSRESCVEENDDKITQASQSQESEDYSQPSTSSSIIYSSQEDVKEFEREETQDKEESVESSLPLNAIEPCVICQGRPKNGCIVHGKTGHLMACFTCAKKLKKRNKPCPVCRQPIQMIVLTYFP

Consider `COc1ccc(C2=N[C@@H](c3ccc(Cl)cc3)[C@@H](c3ccc(Cl)cc3)N2C(=O)N2CCC(N3CCCC3)CC2)c(OC(C)C)c1` [Example 5, [(4S,5R)-4,5-Bis-(4-chloro-phenyl)-2-(2-isopropoxy-4-methoxy-phenyl)-4,5-dihydro-imidazol-1-yl]-(4-pyrrolidin-1-yl-piperidin-1-yl)-methanone], for which the IC50 was 71 nM.
